Tests used:
Rat M4 = molecular target: T1, Rat M4 (Rattus norvegicus, UniProt P08485); assay: mAChR M4 cell-based functional assay (calcium flux, antagonist mode vs EC80 acetylcholine), rat M4/Gqi5/CHO-K1 cells; conditions: for remaining activity at 30 µM: CHO-K1, % ACh maximum at 30 μM, rat M4, read-out: Rat M4 Emin (%); for IC50: decrease of response elicited by EC80 acetylcholine, rat M4/Gqi5 CHO-K1 cells
T1 construct: expressed in transfected cells; host or cells: CHO-K1 (ATCC), stably co-expressing chimeric G protein Gqi5
T1 sequence (P08485 1-478): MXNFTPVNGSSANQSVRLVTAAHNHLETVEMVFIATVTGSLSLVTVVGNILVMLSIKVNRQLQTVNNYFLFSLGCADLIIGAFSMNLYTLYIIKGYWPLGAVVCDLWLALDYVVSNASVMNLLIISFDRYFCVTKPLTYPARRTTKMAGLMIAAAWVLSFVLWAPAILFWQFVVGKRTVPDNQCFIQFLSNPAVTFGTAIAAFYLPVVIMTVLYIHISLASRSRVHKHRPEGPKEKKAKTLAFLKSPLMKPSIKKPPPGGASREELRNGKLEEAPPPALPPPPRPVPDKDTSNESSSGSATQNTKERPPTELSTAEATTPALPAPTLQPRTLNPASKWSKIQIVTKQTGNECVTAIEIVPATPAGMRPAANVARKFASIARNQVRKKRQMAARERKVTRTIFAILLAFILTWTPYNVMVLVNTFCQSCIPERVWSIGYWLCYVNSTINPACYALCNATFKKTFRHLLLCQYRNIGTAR
Protocol: (§1) Human or rat M4 cDNA, along with the chimeric G protein Gqi5, were transfected into Chinese hamster ovary (CHO-K1) cells purchased from the American Type Culture Collection using Lipofectamine2000. M4/Gqi5/CHO cells were grown in Ham's F-12 medium containing 10% heat-inactivated fetal bovine serum (FBS), 20 mM HEPES, 500 μg/mL G418 sulfate, and 200 μg/mL Hygromycin B.
(§2) For high throughput measurement of agonist-evoked increases in intracellular calcium, CHO-K1 cells stably expressing muscarinic receptors were plated in growth medium lacking G418 and hygromycin at 15,000 cells/20 μL/well in Greiner 384-well black-walled, tissue culture (TC)-treated, clear-bottom plates (VWR). Cells were incubated overnight at 37° C. and 5% CO2. The next day, cells were washed using an ELX 405 (BioTek) with assay buffer; the final volume was then aspirated to 20 μL. Next, 20 μL of a 2.3 μM stock of Fluo-4/acetoxymethyl ester (Invitrogen, Carlsbad, Calif.), prepared as a 2.3 mM stock in DMSO and mixed in a 1:1 ratio with 10% (w/v) Pluronic F-127 and diluted in assay buffer, was added to the wells and the cell plates were incubated for 50 min at 37° C. and 5% CO2. Dye was removed by washing with the ELX 405 and the final volume was aspirated to 20 μL. Compound master plates were formatted in a 10 point concentration-response curve (CRC) format (1:3 dilutions) in 100% DMSO with a starting concentration of 10 or 1 mM using a BRAVO liquid handler (Agilent). Test compound CRCs were then transferred to daughter plates (240 nL) using the Echo acoustic plate reformatter (Labcyte, Sunnyvale, Calif.) and then diluted into assay buffer (40 μL) to a 2× stock using a Thermo Fisher Combi (Thermo Fisher Scientific, Waltham, Mass.).
(§3) Calcium flux was measured using the Functional Drug Screening System (FDSS) 6000 or 7000 (Hamamatsu Corporation, Tokyo, Japan) as an increase in the fluorescent static ratio. Compounds were applied to cells (20 μL, 2×) using the automated system of the FDSS at 2 seconds into the protocol and the data were collected at 1 Hz. At 143 s, 10 μL of an EC20 concentration of the muscarinic receptor agonist acetylcholine was added (5×), followed by the addition of 12 μL of an EC80 concentration of acetylcholine at the 268 s time point (5×). Agonist activity was analyzed as a concentration-dependent increase in calcium mobilization upon compound addition. Positive allosteric modulator activity was analyzed as a concentration-dependent increase in the EC20 acetylcholine response. Antagonist activity was analyzed as a concentration-dependent decrease in the EC80 acetylcholine response; for the purposes of the tables herein, an IC50 (inhibitory concentration 50) was calculated as a concentration-dependent decrease of the response elicited by an EC80 concentration of acetylcholine. Concentration-response curves were generated using a four-parameter logistical equation in XLFit curve fitting software (IDBS, Bridgewater, N.J.) for Excel (Microsoft, Redmond, Wash.) or Prism (GraphPad Software, Inc., San Diego, Calif.) or the Dotmatics software platform (Dotmatics, Bishop's Stortford, UK).
(§4) Compounds were synthesized as described above. Activity (IC50 and Emin) was determined in the mAChR M4 cell-based functional assay as described above and the data are shown in Table 2.

Human M4 = molecular target: T2, Human M4 (Homo sapiens, UniProt P08173); assay: mAChR M4 cell-based functional assay (calcium flux, antagonist mode vs EC80 acetylcholine), human M4/Gqi5/CHO-K1 cells; conditions: for remaining activity at 30 µM: CHO-K1, % ACh maximum at 30 μM, human M4, read-out: Human M4 Emin (%); for IC50: decrease of response elicited by EC80 acetylcholine, human M4/Gqi5 CHO-K1 cells
T2 construct: expressed in transfected cells; host or cells: CHO-K1 (ATCC), stably co-expressing chimeric G protein Gqi5
T2 sequence (P08173 1-479): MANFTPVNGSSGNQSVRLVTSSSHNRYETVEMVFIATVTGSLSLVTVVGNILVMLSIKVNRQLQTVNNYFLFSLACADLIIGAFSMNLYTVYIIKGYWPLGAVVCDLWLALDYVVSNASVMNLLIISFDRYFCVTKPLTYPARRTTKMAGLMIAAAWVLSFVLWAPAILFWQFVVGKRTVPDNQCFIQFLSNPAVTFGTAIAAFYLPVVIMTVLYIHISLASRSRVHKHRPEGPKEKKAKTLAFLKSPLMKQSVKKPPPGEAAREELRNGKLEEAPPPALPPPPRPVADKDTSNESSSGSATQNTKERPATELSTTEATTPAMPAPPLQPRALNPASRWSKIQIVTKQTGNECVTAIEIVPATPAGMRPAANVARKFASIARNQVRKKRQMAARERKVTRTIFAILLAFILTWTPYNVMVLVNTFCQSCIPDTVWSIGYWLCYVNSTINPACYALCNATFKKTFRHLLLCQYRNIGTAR
Protocol: as §1, §2, §3, §4

remaining activity at 30 µM (Rat M4) | IC50 (Rat M4) | remaining activity at 30 µM (Human M4) | IC50 (Human M4) | SMILES
8% | 113 nM | 5% | 57.2 nM | [O-][S+](c1ccccc1)c1ccc(N[C@H]2C[C@@H]3CN(CC4CCOCC4)C[C@@H]3C2)nn1 (stereo partly drawn) [compound 28, (3aR,5s,6aS)-N-(6-(phenylsulfinyl)pyridazin-3-yl)-2-((tetrahydro-2H-pyran-4-yl)methyl)octahydrocyclopenta[c]pyrrol-5-amine]
4% | 196 nM | 4% | 7.8 nM | [O-][S+](c1ccccc1)c1ccc(N[C@H]2C[C@@H]3CN(Cc4ccc5c(c4)OCO5)C[C@@H]3C2)nn1 (stereo partly drawn) [compound 30, (3aR,5s,6aS)-2-(benzo[d][1,3]dioxol-5-ylmethyl)-N-(6-(phenylsulfinyl)pyridazin-3-yl)octahydrocyclopenta[c]pyrrol-5-amine]
3% | 1160 nM | 4% | 518 nM | Cc1cc(CN2C[C@H]3C[C@H](Nc4ccc(S(=O)(=O)c5ccccc5)nn4)C[C@H]3C2)ccc1F [compound 31, (3aR,5s,6aS)-2-(4-fluoro-3-methylbenzyl)-N-(6-(phenylsulfonyl)pyridazin-3-yl)octahydrocyclopenta[c]pyrrol-5-amine]
3% | 970 nM | 3% | 242 nM | Cc1cc(CN2C[C@H]3C[C@H](Nc4ccc([S+]([O-])c5ccccc5)nn4)C[C@H]3C2)ccc1F (stereo partly drawn) [compound 32, (3aR,5s,6aS)-2-(4-fluoro-3-methylbenzyl)-N-(6-(phenylsulfinyl)pyridazin-3-yl)octahydrocyclopenta[c]pyrrol-5-amine]
14% | 4460 nM | 5% | 105 nM | O=S(=O)(c1ccc(N[C@H]2C[C@@H]3CN(Cc4ccccn4)C[C@@H]3C2)nn1)C1CCCCC1 [compound 33, (3aR,5s,6aS)-N-(6-(cyclohexylsulfonyl)pyridazin-3-yl)-2-(pyridin-2-ylmethyl)octahydrocyclopenta[c]pyrrol-5-amine]
5% | 119 nM | 4% | 7.75 nM | O=S(=O)(c1ccc(N[C@H]2C[C@@H]3CN(CC4CCOCC4)C[C@@H]3C2)nn1)C1CCCCC1 [compound 34, (3aR,5s,6aS)-N-(6-(cyclohexylsulfonyl)pyridazin-3-yl)-2-((tetrahydro-2H-pyran-4-yl)methyl)octahydrocyclopenta[c]pyrrol-5-amine]
19% | 4810 nM | 6% | 181 nM | Cc1cc(CN2C[C@H]3C[C@H](Nc4ccc(S(=O)(=O)C5CCCCC5)nn4)C[C@H]3C2)nn1C [compound 35, (3aR,5s,6aS)-N-(6-(cyclohexylsulfonyl)pyridazin-3-yl)-2-((1,5-dimethyl-1H-pyrazol-3-yl)methyl)octahydrocyclopenta[c]pyrrol-5-amine]
7% | 460 nM | 5% | 51.5 nM | CC1(C)CC(N2C[C@H]3C[C@H](Nc4ccc(S(=O)(=O)C5CCCCC5)nn4)C[C@H]3C2)CCO1 (stereo partly drawn) [compound 36, (3aR,5s,6aS)-N-(6-(cyclohexylsulfonyl)pyridazin-3-yl)-2-(2,2-dimethyltetrahydro-2H-pyran-4-yl)octahydrocyclopenta[c]pyrrol-5-amine]
4% | 160 nM | 4% | 3.84 nM | O=S(=O)(c1ccc(N[C@H]2C[C@@H]3CN(Cc4ccc5c(c4)OCO5)C[C@@H]3C2)nn1)C1CCCCC1 [compound 37, (3aR,5s,6aS)-2-(benzo[d][1,3]dioxol-5-ylmethyl)-N-(6-(cyclohexylsulfonyl)pyridazin-3-yl)octahydrocyclopenta[c]pyrrol-5-amine]
3% | 591 nM | 4% | 188 nM | Cc1cc(CN2C[C@H]3C[C@H](Nc4ccc(S(=O)(=O)C5CCCCC5)nn4)C[C@H]3C2)ccc1F [compound 38, (3aR,5s,6aS)-N-(6-(cyclohexylsulfonyl)pyridazin-3-yl)-2-(4-fluoro-3-methylbenzyl)octahydrocyclopenta[c]pyrrol-5-amine]
4% | 288 nM | 4% | 70.7 nM | O=S(=O)(c1ccccc1)c1nnc(N[C@H]2C[C@@H]3CN(CC4CCOCC4)C[C@@H]3C2)cc1NC1CC1 [compound 39, N^5-cyclopropyl-6-(phenylsulfonyl)-N^3-((3aR,5s,6aS)-2-((tetrahydro-2H-pyran-4-yl)methyl)octahydrocyclopenta[c]pyrrol-5-yl)pyridazine-3,5-diamine]
15% | 2890 nM | 5% | 221 nM | Cc1cccnc1CN1C[C@H]2C[C@H](Nc3ccc(S(=O)(=O)c4ccccc4)nn3)C[C@H]2C1 [compound 40, (3aR,5s,6aS)-2-((3-methylpyridin-2-yl)methyl)-N-(6-(phenylsulfonyl)pyridazin-3-yl)octahydrocyclopenta[c]pyrrol-5-amine]
20% | 5780 nM | 6% | 742 nM | O=S(=O)(c1ccccc1)c1ccc(N[C@H]2C[C@@H]3CN(Cc4ncccc4C(F)(F)F)C[C@@H]3C2)nn1 [compound 41, (3aR,5s,6aS)-N-(6-(phenylsulfonyl)pyridazin-3-yl)-2-((3-(trifluoromethyl)pyridin-2-yl)methyl)octahydrocyclopenta[c]pyrrol-5-amine]
14% | 3110 nM | 3% | 1000 nM | Cc1cc2c(cc1CN1C[C@H]3C[C@H](Nc4ccc(S(=O)(=O)c5ccccc5)nn4)C[C@H]3C1)OCO2 [compound 42, (3aR,5s,6aS)-2-((6-methylbenzo[d][1,3]dioxol-5-yl)methyl)-N-(6-(phenylsulfonyl)pyridazin-3-yl)octahydrocyclopenta[c]pyrrol-5-amine]

From patent publication US20230183218A1, “CONDENSED SUBSTITUTED HYDROPYRROLES AS ANTAGONISTS OF THE MUSCARINIC ACETYLCHOLINE RECEPTOR M4” (Vanderbilt University, priority 2020, published 2023)
